Data from patent publication US20250367225A1 (priority 2022, published 2025).

Columns and labels:
[1] = test system: SARS-COV-2 Omicron BA.1 variant (B.1.1.529); design: species or system BALB/c mice; settings: mouse, in vivo
[2] = test system: SARS-COV-2 Delta variant (B.1.617.2); design: species or system Syrian hamsters; settings: hamster, in vivo

SMILES: CCCCCCCCCCCCCC[C@@H](O)[C@@H](O)[C@H](CO[C@H]1O[C@H](CO)[C@H](O)[C@H](O)[C@H]1O)NC(=O)CCCCCCCCCCc1ccc(F)cc1 [7DW8-5]
- body weight [1]: significant weight gain
- virus replication in lung tissues [1]: complete inhibition
- viral load in lung tissues [2]: significantly decreased
- viral load in nasal tissues [2]: significantly decreased
